From PubChem BioAssay AID602435 (Southern Research Specialized Biocontainment Screening …, 2012)
“And” between values parts separate entries of the source, which are not always exact repeats. Identical values can stand only once. Inconclusive results are not listed. The source made the active and inactive calls. No rule for the calls is given here.

Assays:
[1] = tested on: Mycobacterium tuberculosis H37Rv growth, 7H9 medium; assay: M. tuberculosis growth inhibition, dose response, 7H9 medium, purified and synthesized samples, set 9 (AID 602435); conditions: for IC50: measured here: IC50 growth inhibition replicates
[2] = as above; conditions: Mycobacterium tuberculosis H37Rv growth, 7H9 medium

Row | Structure (SMILES) | IC50 [1] | IC90 [1] | growth inhibition ([2]; at 100 µM (top of the series)) | growth inhibition ([2]; at 50 µM (top of the series))
1 | COc1ccc(N2CCN(C(=O)c3ccc(CNc4c(N5CCOCC5)c(=O)c4=O)cc3)CC2)cc1 | 6.35 µM and 6.09 µM |  |  | 
2 | O=C(NCCc1ccc(Cl)cc1)c1ccc(CNc2c(N3CCOCC3)c(=O)c2=O)cc1 | 10.5 µM and 12.5 µM | 19.1 µM |  | 
3 | CC1CCCN(C(=O)C2CCC(CNc3c(N4CCCCC4)c(=O)c3=O)CC2)C1 (stereo not given) | 26.2 µM |  |  | 
4 | O=C(CSc1nc2c(c(=O)[nH]1)CCC2)NC1CCCCC1 | 2.97 µM | 3.92 µM |  | 
5 | COc1ccc(N2CCN(C(=O)c3ccc(CNC(=O)NCc4ccc(Cl)cc4)cc3)CC2)cc1 |  |  | 3.4% (inactive) | 
6 | CCOC(=O)N1CCC(Nc2c(Nc3cccc(CC)c3)c(=O)c2=O)CC1 |  |  |  | 3.52% (inactive)
7 | CC(=O)c1ccc(NC(=O)c2ccc(CNc3c(N4CCOCC4)c(=O)c3=O)cc2)cc1 | 50 µM |  |  | 
8 | O=C(c1ccc(CNc2c(N3CCOCC3)c(=O)c2=O)cc1)N1CCC(c2ccccc2)CC1 | 3.43 µM | 16 µM |  | 
9 | O=C(CSc1nc2c(c(=O)[nH]1)CN(Cc1ccccc1)CC2)NC1CCCCC1 |  |  | -0.3% (inactive) | 
10 | CC(C)CCNC(=O)CSc1nc2ccccc2c(=O)[nH]1 | 0.696 µM | 0.78 µM |  | 
11 | CC1CCCN(c2c(NCc3ccc(C(=O)N4CC=C(c5ccccc5)CC4)cc3)c(=O)c2=O)C1 (stereo not given) | 7.54 µM | 11.8 µM |  | 
12 | CC1CC(C)CN(C(=O)c2ccc(CNc3c(N4CCCC4)c(=O)c3=O)cc2)C1 (stereo not given) | 8.84 µM |  |  | 
13 | COC(=O)C(Cc1ccccc1)NC(=O)CSc1nc2ccccc2c(=O)[nH]1 (stereo not given) |  |  | 4.82% (inactive) | 
14 | O=C(CSc1nc2c(c(=O)[nH]1)CCCC2)NC1CCCCC1 | 1.97 µM | 3.12 µM |  | 
15 | CCOC(=O)CSc1ncnc2c1cnn2-c1ccc(C)cc1C | 2.42 µM | 3.65 µM |  | 
16 | CC1CCN(C(=O)c2ccc(CNc3c(N4CCCC4)c(=O)c3=O)cc2)CC1 | 8.48 µM |  |  | 
17 | O=C(NCCc1ccc(Cl)cc1)C1CCC(CNc2c(N3CCCCC3)c(=O)c2=O)CC1 (stereo not given) | 37.1 µM |  |  | 
18 | CCC(C)NC(=O)CSc1nc2ccccc2c(=O)[nH]1 (stereo not given) | 15.7 µM | 16.9 µM |  | 
19 | CC1CCCN(C(=O)c2ccc(CNc3c(N4CCCCC4)c(=O)c3=O)cc2)C1 (stereo not given) | 3.7 µM |  |  | 
20 | O=C(NCc1ccc(C(=O)N2CCN(c3ccccc3)CC2)cc1)NC1CCCCC1 |  |  | 2.95% (inactive) | 
21 | O=C(CSc1nc2ccccc2c(=O)[nH]1)NC1CCCCC1 | 0.195 µM | < 0.29 µM |  | 

Row | Structure (SMILES) | IC50 [1] | IC90 [1] | growth inhibition ([2]; at 100 µM (top of the series)) | growth inhibition ([2]; at 50 µM (top of the series))
22 | O=C(c1ccc(CNc2c(N3CCCC3)c(=O)c2=O)cc1)N1CCN(c2ccccc2)CC1 | 62.3 µM |  |  | 
23 | COCCNC(=O)CSc1nc2ccccc2c(=O)[nH]1 |  |  | -5.73% (inactive) | 
24 | CC(C)CCNC(=O)CSc1nc2c(c(=O)[nH]1)CCCCC2 | 99.6 µM |  |  | 
25 | COc1ccc(N2CCN(C(=O)c3ccc(CNc4c(N5CCCC(C)C5)c(=O)c4=O)cc3)CC2)cc1 (stereo not given) | 28.1 µM | 46.9 µM |  | 
26 | O=C(NCc1ccc(C(=O)N2CCC(c3ccccc3)CC2)cc1)NC1CCCCC1 | 69.1 µM | 88.7 µM |  | 
27 | O=C(NCc1ccc(C(=O)N2CCC(c3ccccc3)CC2)cc1)Nc1ccc(Cl)cc1 | 74.4 µM | 94 µM |  | 
28 | Cc1cccc(N2CCN(C(=O)c3ccc(CNc4c(N5CCC(C)CC5)c(=O)c4=O)cc3)CC2C)c1 (stereo not given) | 26.9 µM | 41.3 µM |  | 
29 | CC(C)CCNC(=O)CSc1nc2c(c(=O)[nH]1)CCCC2 | 4.43 µM | 6.12 µM |  | 
30 | O=C(c1ccc(CNc2c(N3CCCC3)c(=O)c2=O)cc1)N1CCc2ccccc2C1 | 5.06 µM |  |  | 
31 | O=C(c1ccc(CNc2c(N3CCOCC3)c(=O)c2=O)cc1)N1CC=C(c2ccccc2)CC1 | 0.957 µM | 6.81 µM |  | 
32 | O=C(C1CCC(CNc2c(N3CCCCC3)c(=O)c2=O)CC1)N1CCCCC1 (stereo not given) | 25.2 µM |  |  | 
33 | CC1CC(C)CN(C(=O)C2CCC(CNc3c(N4CCCCC4)c(=O)c3=O)CC2)C1 (stereo not given) | 13.7 µM and 29 µM |  |  | 
34 | O=C(CSc1nc2ccccc2c(=O)[nH]1)NC1CCOCC1 | 23.1 µM | 26 µM |  | 
35 | CCOc1ccc(NC(=O)c2ccc(CNc3c(N4CCCC4)c(=O)c3=O)cc2)cc1 |  |  | -10% (inactive) | 
36 | O=C(c1ccc(CNc2c(N3CCOCC3)c(=O)c2=O)cc1)N1CCN(c2ccccc2)CC1 | 3.45 µM |  |  | 
37 | CC(C)OC(=O)CSc1ncnc2c1cnn2-c1ccccc1 | 28.7 µM |  |  | 
38 | O=C(c1ccc(CNc2c(N3CCCC3)c(=O)c2=O)cc1)N1CC=C(c2ccccc2)CC1 | 3.22 µM and 2.96 µM |  |  | 
39 | Cc1cccc(N2CCN(C(=O)c3ccc(CNc4c(N5CCC(C)CC5)c(=O)c4=O)cc3)CC2)c1C | 42.1 µM |  |  | 
40 | CCOC(=O)CSc1ncnc2c1cnn2-c1ccccc1 | 15.3 µM | 39.5 µM |  | 
41 | COC(=O)CSc1ncnc2c1cnn2-c1ccc(C)cc1C | 2.57 µM | 3.65 µM |  | 
42 | O=C(c1ccc(CNc2c(N3CCCC3)c(=O)c2=O)cc1)N1CCC(c2ccccc2)CC1 | 79.7 µM |  |  | 
